experiment: Inhibition of Staphylococcus aureus Sortase Adelta59 by FRET assay

Point of comparison: O=C(/C=C/c1ccco1)Nc1ccc(N2CCOCC2)c(C(=O)O)c1, IC50 181 µM. Against it:
- COC(=O)c1cc(NC(=O)C#Cc2cccs2)ccc1N1CCOCC1 — within 1.5-fold, 165 µM
- O=C(C#Cc1cccs1)Nc1ccc(N2CCOCC2)c(C(=O)O)c1 — within 1.5-fold, 183 µM
- COC(=O)c1cc(NC(=O)/C=C\c2cccs2)ccc1N1CCOCC1 — 3-fold lower, 61 µM
- O=C(/C=C\c1cccs1)Nc1ccc(N2CCOCC2)c(C(=O)O)c1 — within 1.5-fold, 154 µM
- COC(=O)c1cc(N(C)C(=O)/C=C/c2cccs2)ccc1N1CCOCC1 — 3.2-fold higher, 571 µM
- COC(=O)c1cc(N(C)C(=O)/C=C/c2ccco2)ccc1N1CCOCC1 — 2.8-fold higher, 514 µM
- CN(C(=O)/C=C/c1cccs1)c1ccc(N2CCOCC2)c(C(=O)O)c1 — higher, > 600 µM
- CN(C(=O)/C=C/c1ccco1)c1ccc(N2CCOCC2)c(C(=O)O)c1 — higher, > 600 µM
- COC(=O)c1cc(NC/C=C/c2cccs2)ccc1N1CCOCC1 — within 1.5-fold, 249 µM
- O=C(O)c1cc(NC/C=C/c2cccs2)ccc1N1CCOCC1 — higher, > 600 µM
- COC(=O)c1cc(NC(=O)/C=C/c2cccs2)ccc1N1CCCCC1 — 2-fold lower, 92 µM
- COC(=O)c1cc(NC(=O)/C=C/c2ccco2)ccc1N1CCCCC1 — within 1.5-fold, 131 µM
- O=C(/C=C/c1cccs1)Nc1ccc(N2CCCCC2)c(C(=O)O)c1 — the same, 181 µM
- O=C(/C=C/c1ccco1)Nc1ccc(N2CCCCC2)c(C(=O)O)c1 — 2.6-fold higher, 463 µM
- O=C(/C=C/c1cccs1)Nc1ccc(N2CCOCC2)c(C(=O)O)c1 — 2.4-fold lower, 75 µM
- COC(=O)c1cc(NC(=O)/C=C/c2cccs2)ccc1N1CCOCC1 — 2.5-fold lower, 71 µM
- O=C(/C=C/c1ccco1)Nc1ccc(N2CCOCC2)c(CO)c1 — 1.6-fold lower, 111 µM
- COC(=O)c1cc(NC(=O)CCc2cccs2)ccc1N1CCOCC1 — higher, > 600 µM
- O=Cc1cc(NC(=O)/C=C/c2ccco2)ccc1N1CCOCC1 — 1.7-fold lower, 107 µM
- NC(=O)c1cc(NC(=O)/C=C/c2cccs2)ccc1N1CCOCC1 — 1.7-fold lower, 105 µM
- O=Cc1cc(NC(=O)/C=C/c2cccs2)ccc1N1CCOCC1 — 2.4-fold lower, 77 µM
- O=C(CCc1ccco1)Nc1ccc(N2CCOCC2)c(C(=O)O)c1 — higher, > 600 µM
- COC(=O)c1cc(NC(=O)/C=C/c2ccco2)ccc1N1CCOCC1 — 3.1-fold lower, 58 µM
- O=C(CCc1cccs1)Nc1ccc(N2CCOCC2)c(C(=O)O)c1 — higher, > 600 µM
- O=C(/C=C/c1cccs1)Nc1ccc(N2CCOCC2)c(CO)c1 — 2.5-fold lower, 73 µM
- COC(=O)c1cc(NC(=O)CCc2ccco2)ccc1N1CCOCC1 — higher, > 600 µM

Reference: ChEMBL document CHEMBL1240412, “Synthesis and structure activity relationship studies of novel Staphylococcus aureus Sortase A inhibitors” (Eur J Med Chem, 2010)
